From publication PMC9023544, “Ketone-selenoesters as potential anticancer and multidrug resistance modulation agents in 2D and 3D ovarian and breast cancer in vitro models” (Scientific Reports, 2022)

Key:
Assay in all cases: 3D spheroid formation
[1] = system: HOC/ADR spheroids; type: cell-based, human; conditions: 1 µM
Experimental: (§1) To monitor the effect of selenoesters on spheroid formation, HOC, HOC/ADR, MCF-7 and MCF-7/PAX cell lines were used. 24 h after HOC cells’ inoculation, the diameter of formed spheroids was measured. The spheroids with diameters above 200 µm are characterized by the presence of a concentration gradient of oxygen, nutrients, and metabolites. The ovarian cancer cells (HOC, HOC/ADR) formed aggregates in which single cells could be recognized (Figs. 3, 4). In contrast, breast cancer cell lines (MCF-7, MCF-7/PAX) (Figs. 5, 6) formed compact spheroids where individual cells could not be distinguished because of close cell–cell interactions. According to this fact, the easier penetration and action of compounds into spheroids of ovarian cancer cells is expected. Upon selenoesters’ addition, the images of spheroids were taken regularly to determine their areas relative to the control spheroids in medium containing the solvent (1% V/V DMSO).
(§2) Human ovarian and breast cancer cells (parental and resistant) were seeded into U bottom 96-well plates (VWR, Radnor, Pennsylvania, United States) coated with 0.8% SeaKem LE Agarose at a cell density 0.5 × 10^5 cells/mL (HOC, HOC/ADR) and 1 × 10^5 cell/mL (MCF-7, MCF-7/PAX) in 100 µL of medium with appropriate cytostatic agent. After 24 h, the plates were enriched with 100 µL of medium with tested compounds K3, K4, K7 at the final concentration of 1 µM, except for control cells (100 µL medium with 1% V/V DMSO). Spheroids were recorded 0; 24; 48 and 72 h after exposure to tested compounds by using the light microscope Axio Vert. A1 (Zeiss, Jena, Germany) with photo documentation equipment, Axiocam ICC 1 and Axio Vision 4.8 software (Zeiss), and the spheroid areas were determined by using ImageJ (National Institute of Health, Bethesda, Maryland, United States). Subsequently, a spheroid growth was calculated according to equation: Spheroid area%=SAS at t/SAC at t×100 where SAS represents the area of spheroids treated with the compound; SAC is the control spheroid area; and the exposure time (t = 0; 24; 48; 72 h).

[2] = system: MCF-7 spheroids; type: cell-based, human; conditions: 1 µM, whole treatment (24–72 h)
Experimental: as §1, §2

[3] = system: HOC spheroids; type: cell-based; conditions: Homo sapiens, 24 h, read-out: inhibition of HOC spheroid growth
Experimental: as §1, with “According to this fact, the easier penetration and action of compounds into spheroids of ovarian cancer cells is expected. Upon selenoesters’ addition, the images of spheroids were taken regularly to determine their areas relative to the control spheroids in medium containing the solvent (1% V/V DMSO).” left out
Human ovarian and breast cancer cells (parental and resistant) were seeded into U bottom 96-well plates (VWR, Radnor, Pennsylvania, United States) coated with 0.8% SeaKem LE Agarose at a cell density 0.5 × 10^5 cells/mL (HOC, HOC/ADR) and 1 × 10^5 cell/mL (MCF-7, MCF-7/PAX) in 100 µL of medium with appropriate cytostatic agent. […] Spheroids were recorded 0; 24; 48 and 72 h after exposure to tested compounds by using the light microscope Axio Vert. A1 (Zeiss, Jena, Germany) with photo documentation equipment, Axiocam ICC 1 and Axio Vision 4.8 software (Zeiss), and the spheroid areas were determined by using ImageJ (National Institute of Health, Bethesda, Maryland, United States). […]

[4] = system: MCF-7/PAX spheroids; type: cell-based, human; conditions: 1 µM, first 24 h
Experimental: as §1, §2

| SMILES | decrease of HOC/ADR spheroid growth ([1]; first 24 h) | MCF-7 spheroid growth relative to control [2] | inhibition at 1 µM [3] | HOC/ADR spheroid area compared to the control [1] | effect on MCF-7/PAX spheroid growth (in words) [4] |
| --- | --- | --- | --- | --- | --- |
| CC(=O)C[Se]C(=O)c1ccc(Br)cc1 [K3] | 45% | under 80% |  |  |  |
| CC(=O)C[Se]C(=O)c1ccc(C(C)(C)C)cc1 [K7] |  |  | > 40% | 75% | slowed down |
